Measured values reported in patent US20120083647A1, “METHOD FOR CHANGING AN INDIVIDUAL'S STATE OF CONSCIOUSNESS” (priority 2010, published 2012).

How the values were obtained:
[1] = healthy male volunteers, iv TCI; for subjects who lost consciousness at 75% of LOC: target 75% of individually determined LOC concentration; for subjects who lost consciousness at 100% of LOC: target 100% of individually determined LOC concentration; for subjects who lost consciousness at 125% of LOC: target 125% of individually determined LOC concentration
Experimental: Twenty volunteers (healthy, right-handed, 19 to 28 years old males) participated in this open, non-randomized study approved by the local ethics committee and the National Agency for Medicines. All subjects gave written informed consent. […] Subjects refrained from using alcohol or any medication for 48 hours before the study and they fasted overnight. No pre-medication was administered prior to study drug administration.
Subjects participated in two separate anesthesia sessions approximately one month apart. The first session was used to establish each subject's individual dose-response characteristics. The second session was used for neuroimaging. Subjects were anesthetized in a similar fashion on the two separate occasions. For each session, the subjects were prepared for the administration of a general anesthetic. In the first session, the individual concentrations for LOC were determined. Subjects were divided into two groups to receive either dexmedetomidine (n=10) or propofol (n=10) intravenous anesthesia via computer-controlled infusion. Once assigned to a particular anesthetic agent, that subject then again received that anesthetic during the neuroimaging session. Each infusion was started at a low rate and was then increased in a step-wise manner at 10 min intervals until LOC was detected. Consciousness was tested at 5 min intervals by asking the subjects to open their eyes. LOC was defined as being unresponsive to this request.
Dexmedetomidine (Precedex 100 μg/ml, Orion, 02200 Espoo, Finland) was administered intravenously using a target controlled infusion (TCI) scheme aiming at escalating pseudo steady-state plasma concentrations every 10 min. A Harvard 22 syringe pump (Harvard Apparatus, South Natick, Mass.) connected to a portable computer running […] software (Steven L. Schafer, M.D., Columbia University Medical Center, 622 W 168th St, PH 5-505 New York, N.Y. 10032-3725, USA) and the pharmacokinetic parameters of Talke were used (P. Talke et al., Anesthesiology 99, 65 (2003)). In the first session, the infusion was started at a target (plasma) concentration of 1.0 ng/ml, followed first by a 0.5 ng/ml target concentration increase and then by subsequent 0.25 ng/ml increases thereafter (i.e. 1.0-1.5-1.75-2.0-2.25-etc. ng/ml) until LOC was achieved.
Propofol (Propofol Lipuro 10 mg/ml, B. Braun Melsungen AG, Pfieffewiesen, D-34212 Melsungen, Germany) was administrated with the same infusion system and scheme as dexmedetomidine, using the Marsh pharmacokinetic model (B. Marsh et al., Br J Anaesth 67, 412 (1991)). In the first session, the infusion was started at a target (plasma) concentration of 1.0 μg/ml, followed first by a 0.5 μg/ml target concentration increase and then subsequent 0.25 μg/ml increases thereafter (i.e. 1.0-1.5-1.75-2.0-2.25-etc. μg/ml) until LOC was achieved.
In the second (neuroimaging) session of the study, the computer controlled drug infusion was repeated for each subject by aiming at their individually determined drug concentrations 50, 75 and 100% of the LOC concentration. Consciousness was tested similarly to the first session. If the LOC concentration defined in the first session of the study was not sufficient to produce LOC in the second session, the drug infusion was continued and an additional 25% target concentration increment was added to the rate. Concentrations were adjusted at 10 min intervals with simultaneous imaging at each level until LOC was detected.

[2] = after LOC, continuous infusion of the drug
Experimental: After LOC was reached and neuroimaging completed at that level of anesthesia, those in the propofol infusion group had the infusion terminated and the subjects were allowed to emerge from anesthesia. During the emergence process, consciousness was tested at 1 min intervals until ROC was detected. ROC was defined as eye opening in response to the command to do so. […] PET measurements were thus obtained during the four conditions: baseline, sedation, LOC and ROC for 17 subjects.

Row | SMILES | subjects who lost consciousness at 75% of LOC [1] | subjects who lost consciousness at 100% of LOC [1] | subjects who lost consciousness at 125% of LOC [1] | subjects who lost consciousness at 50% of the previously measured LOC concentration value ([1]; target 50% of individually determined LOC concentration) | restoration of consciousness by stimulation during drug infusion [2]
1 | CC(C)c1cccc(C(C)C)c1O [propofol, Propofol] | 2 | 6 | 1 | – | –
2 | Cc1cccc([C@H](C)c2cnc[nH]2)c1C [dexmedetomidine, Dexmedetomidine] | 1 | 3 | 5 | 1 | gentle tactile stimulation and/or loud voice was sufficient to restore consciousness
